Reference: publication PMC8403742, “A single point mutation causes one-way alteration of pheromone receptor function in two Heliothis species” (iScience, 2021)
“Also recorded” adds a separate entry of the source.

Experiments:
HsubOR13/HsubOrco = HsubOR13/HsubOrco co-expressed in Xenopus oocytes, two-electrode voltage clamp; details: 10^-4 M solution
Method: (§1) Stock solutions (1 M) were dissolved in dimethyl sulfoxide (DMSO) and stored at −20°C. Before experiments, the stock solution was diluted in 1 × Ringer's buffer (96 mM NaCl, 2 mM KCl, 5 mM MgCl2, 0.8 mM CaCl2 and 5 mM HEPES, pH 7.6) to working concentration of 10^−4 M. 1 × Ringer's buffer containing 0.1% DMSO was used as a negative control.
(§2) The vectors contain the full ORF of all ORs were linearized to prepare the templates and the cRNA was synthesized with mMESSAGE mMACHINE SP6 (Ambion). Stage V to VII oocytes were treated with 2 mg/mL collagenase I (GIBCO, Carlsbad, CA) in 1 × Ca^2+-free washing buffer (96 mM NaCl, 2 mM KCl, 5 mM MgCl2 and 5 mM HEPES, pH 7.6) for about 1 h at room temperature. After being cultured overnight at 18°C, oocytes were then microinjected with 27.6 ng of Orco cRNA and 27.6 ng of ORs cRNA. Oocytes microinjected with 55.2 ng of Orco were used as negative controls. Injected oocytes were incubated for 4–7 days at 18°C in 1 × washing buffer (96 mM NaCl, 2 mM KCl, 5 mM MgCl2, 0.8 mM CaCl2 and 5 mM HEPES, pH 7.6) supplemented with 5% dialysed horse serum, 50 mg/mL tetracycline, 100 mg/mL streptomycin and 550 mg/mL sodium pyruvate.
(§3) Whole-cell currents were recorded with a two-electrode voltage clamp from the injected oocytes. Odorant-induced currents were recorded with an OC-725C oocyte clamp (Warner Instruments, Hamden, CT, USA) at a holding potential of −80 mV. […]

HsubOR14/HsubOrco = HsubOR14/HsubOrco co-expressed in Xenopus oocytes, two-electrode voltage clamp; details: 10^-4 M solution
Method: as §1, §2, §3

HsubOR6/HsubOrco = HsubOR6/HsubOrco (Heliothis subflexa, UniProt A0A8E4MSQ8); test: HsubOR6/HsubOrco co-expressed in Xenopus oocytes, two-electrode voltage clamp; type: cell-based; details: for response of receptor to compound: 10^-4 M solution
HvirOR6/HvirOrco = HvirOR6/HvirOrco (Heliothis virescens, UniProt Q8MMI0); test: HvirOR6/HvirOrco co-expressed in Xenopus oocytes, two-electrode voltage clamp; type: cell-based; details: for response of receptor to compound / response (inward current): HvirOR6/HvirOrco Xenopus oocytes; for response (inward current): concentration of 10^-4 M
[1] = target: VM321 (HvirOR6 L321V, VM6) (Heliothis virescens, UniProt Q8MMI0, L321V); test: cell-based; type: cell-based; details: for response of mutant receptor to compound: 10^-4 M, HvirOR6 L321V (VM6/VM321)
SM321 (HsubOR6 V321L) = SM321 (HsubOR6 V321L) (Heliothis subflexa, UniProt A0A8E4MSQ8, V314L); test: cell-based; type: cell-based; details: for response of mutant receptor compared with HsubOR6: 10^-4 M, HsubOR6 V321L (SM321)
[2] = test system: chimeric OR6s (VSS, SVV, VVS, and SSV); type: cell-based, Heliothis virescens, Heliothis subflexa
[3] = test system: HvirOR6 mutants VM5, VM7, VM10, VM11, VM13, VM14, VM17, VM21, VM22, and VM30; type: cell-based, Heliothis virescens; details: 10^-4 M, 10 mutants VM5, VM7, VM10, VM11, VM13, VM14, VM17, VM21, VM22, VM30
[4] = test system: HvirOR6 mutants VM1, VM2, VM3, VM4, VM12, VM15, VM16, VM20, VM23, VM24, VM29, and VM31; type: cell-based, Heliothis virescens; details: 10^-4 M, 12 mutants VM1, VM2, VM3, VM4, VM12, VM15, VM16, VM20, VM23, VM24, VM29, VM31
HvirOR6 mutant VM18 = type: cell-based, Heliothis virescens; details: 10^-4 M
HvirOR6 mutant VM19 = type: cell-based, Heliothis virescens; details: 10^-4 M
HsubOR16/HsubOrco = HsubOR16/HsubOrco co-expressed in Xenopus oocytes, two-electrode voltage clamp; details: 10^-4 M solution
Method: as §1, §2, §3

[5] = test system: HvirOR6 mutants VM8, VM26, VM27, and VM28; type: cell-based, Heliothis virescens; details: 10^-4 M
[6] = test system: HvirOR6 mutants VM9 and VM25; type: cell-based, Heliothis virescens; details: 10^-4 M

Chain of HsubOR6/HsubOrco (A0A8E4MSQ8 1-424): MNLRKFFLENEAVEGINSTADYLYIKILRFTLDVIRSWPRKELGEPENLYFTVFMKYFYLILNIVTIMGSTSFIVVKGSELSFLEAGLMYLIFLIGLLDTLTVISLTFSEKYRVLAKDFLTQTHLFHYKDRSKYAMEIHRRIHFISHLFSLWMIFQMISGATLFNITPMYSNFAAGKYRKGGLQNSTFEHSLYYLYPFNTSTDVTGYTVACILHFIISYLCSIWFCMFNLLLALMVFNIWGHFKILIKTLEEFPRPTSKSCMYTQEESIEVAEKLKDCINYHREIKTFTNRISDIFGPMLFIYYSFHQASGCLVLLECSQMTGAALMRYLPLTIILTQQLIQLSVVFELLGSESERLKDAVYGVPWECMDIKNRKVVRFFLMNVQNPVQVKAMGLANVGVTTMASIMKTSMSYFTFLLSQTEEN

Row | Compound | response of receptor to compound (HsubOR6/HsubOrco) | response of receptor to compound (HvirOR6/HvirOrco) | response (inward current) (HvirOR6/HvirOrco) | response of mutant receptor to compound [1] | response of mutant receptor compared with HsubOR6 (SM321 (HsubOR6 V321L)) | response of chimeric OR6s compared with original sequences [2] | response of HvirOR6 mutants compared with HvirOR6 [3] | response of HvirOR6 mutants compared with HvirOR6 [4] | also measured
1 | CCCC/C=C\CCCCCCCCCC=O [Z11-16:Ald, (Z)-11-hexadecenal] |  |  |  |  |  |  |  |  | response of receptor to compound (HsubOR13/HsubOrco): specifically responded
2 | CCCC/C=C\CCCCCCCCCCOC(C)=O [Z11-16:OAc, (Z)-11-hexadecenyl acetate] |  |  |  |  |  |  |  |  | response of receptor to compound (HsubOR14/HsubOrco): specifically activated
3 | CCCCCC/C=C\CCCCCCCC=O [Z9-16:Ald, (Z)-9-hexadecenal] | responded; also recorded: specifically responsive | responsive | 187.44 nA | retaining the response | increased | decreased significantly | did not have altered responses | significant decrease in the response | average response (inward current) (HsubOR6/HsubOrco; concentration of 10^-4 M): 184.04 nA; EC50 (HsubOR6/HsubOrco; holding potential -80 mV, read-out: EC50 (dose-response of inward current)): 46.3 µM; EC50 (HvirOR6/HvirOrco): 24.8 µM; EC50 [1]: 40.8 µM; EC50 (SM321 (HsubOR6 V321L)): 20.4 µM; response of HvirOR6 mutant compared with HvirOR6 (HvirOR6 mutant VM18): increased response; response of HvirOR6 mutant compared with HvirOR6 (HvirOR6 mutant VM19): decreased response
4 | CCCC/C=C\CCCCCCCCCCO [Z11-16:OH, (Z)-11-hexadecen-1-ol] |  |  |  |  |  |  |  |  | response of receptor to compound (HsubOR16/HsubOrco): responded robustly
5 | CCCC/C=C\CCCCCCCC=O [Z9-14:Ald, (Z)-9-tetradecenal] | little if any response; also recorded: lost its ability to recognize | responsive | 1,541.96 nA | lost its response; also recorded: lost its ability to bind | remained unchanged | decreased significantly | did not have altered responses | significant decrease in the response | response to Z9-14:Ald relative to that to Z9-16:Ald (HvirOR6/HvirOrco; 10^-4 M, HvirOR6): about 8.23 times; response of HvirOR6 mutants compared with HvirOR6 [5]: increased responses; response of HvirOR6 mutants compared with HvirOR6 [6]: decreased responses
